Experiments:
total ATXN3 protein = assay: ATXN3 total protein assay (MSD, SK-N-MC cells); format: cell-based, Human; conditions: 48 hours incubation, read-out: ATXN3 Potency - Protein IC50
Experimental: Human neuroblastoma SK-N-MC cells were seeded at 10,000 cells/well in 384 well plates one day prior to compound treatment. The concentrations of compounds were tested at appropriate doses ranging from 30 μM to 0.6 nM. After incubation for 48 hours, the cells were lysed with 25 μL of lysis buffer containing protease inhibitors, and total ATXN3 protein levels were assessed by Mesoscale Discovery (MSD) assay developed with one pair of anti-ATXN3 antibodies. The capture and detect antibodies were raised in mouse and rabbit respectively. Anti-rabbit MSD-ST antibody was used for secondary antibody.
ATXN3 recombinant protein was used for standards. The readouts were captured with 35 μL of MSD read buffer and multi-array 384-well high binding plates.

[1] = test system: ATXN3 transcripts containing exon 4 (E4E5); assay: ATXN3 quantitative splicing assay (qPCR, SK-N-MC cells); format: cell-based; conditions: Homo sapiens, 24 h treatment, qPCR E4E5 primers/probe, read-out: ATXN3 Potency - Splicing E4E5 IC50
Experimental: Human neuroblastoma SK-N-MC cells were plated in 384-well plates at 20,000 cells/well. Twenty-four hours after plating, cells were treated with compounds for 24 h at appropriate concentrations ranging from 30 μM to 0.6 nM (0.3% DMSO). Treated cells were lysed in 15 μL of lysis buffer, and cDNA was synthesized using the Fast Advanced Cells-to-Ct kit. Two μL of each cDNA was used in qPCR reactions to confirm the exon 4 skipped transcripts of ATXN3. A second set of primers/probe E4E5 was used to detect the transcripts containing exon 4. The third set of primers/probe E8E9 was used to detect total gene level of ATXN3. The qPCR reactions were prepared in 384-well plates in 10 μL volume, using TaqMan™ Fast Advanced Master Mix with primers and probes shown in the table below. Reactions were run in a Quant Studio 6 qPCR instrument with default settings.
The primers and probes are listed below in Table 4.

SMILES	IC50 (total ATXN3 protein)	IC50 [1]
Cc1c(C[C@H](C)N)sc2c(NCc3cccs3)c(Br)nnc12 [Compound 66, 6-[(2S)-2-aminopropyl]-3-bromo-7-methyl-N-[(thiophen-2-yl)methyl]thieno[3,2-c]pyridazin-4-amine]	10 to 40 µM	10 to 40 µM
Cc1c(C[C@H]2CCN2)sc2c(NCc3cccs3)cnnc12 [Compound 72, 6-{[(2R)-azetidin-2-yl]methyl}-7-methyl-N-[(thiophen-2-yl)methyl]thieno[3,2-c]pyridazin-4-amine]	10 to 40 µM	10 to 40 µM
C[C@H](N)Cc1sc2c(NCc3cccs3)cnnc2c1Cl [Compound 36, 6-[(2S)-2-aminopropyl]-7-chloro-N-[(thiophen-2-yl)methyl]thieno[3,2-c]pyridazin-4-amine]	0.101 to 0.5 µM	0.101 to 0.5 µM
C=C(C)c1sc2c(NCc3cccs3)cnnc2c1C [Compound 37, 7-methyl-6-(prop-1-en-2-yl)-N-(thiophen-2-ylmethyl)thieno[3,2-c]pyridazin-4-amine]	10 to 40 µM	10 to 40 µM
Cc1c(C[C@H](C)N)sc2c(NCc3ccsc3F)cnnc12 [Compound 17, 6-[(2S)-2-aminopropyl]-N-[(2-fluorothiophen-3-y1)methyl]-7-methylthieno[3,2-c]pyridazin-4-amine]	10 to 40 µM	5 to 10 µM
C=C(C)Cc1sc2c(NCc3ccco3)cnnc2c1C [Compound 34, N-[(furan-2-yl)methyl]-7-methyl-6-(2-methylprop-2-en-1-yl)thieno[3,2-c]pyridazin-4-amine]	10 to 40 µM	10 to 40 µM
C[C@H](N)Cc1sc2c(NCc3cccs3)cnnc2c1C#N [Compound 24, (S)-6-(2-aminopropyl)-4-((thiophen-2-ylmethyl)amino)thieno[3,2-c]pyridazine-7-carbonitrile]	0.501 to 5 µM	0.501 to 5 µM
Cc1c(C[C@H](C)N)sc2c(NC(=O)c3cccs3)cnnc12 [Compound 51, N-{6-[(2S)-2-aminopropyl]-7-methylthieno[3,2-c]pyridazin-4-yl}thiophene-2-carboxamide]	10 to 40 µM	10 to 40 µM
C[C@H](N)Cc1sc2c(NCc3cccs3)cnnc2c1Br [Compound 35, 6-[(2S)-2-aminopropyl]-7-bromo-N-[(thiophen-2-yl)methyl]thieno[3,2-c]pyridazin-4-amine]	0.101 to 0.5 µM	0.101 to 0.5 µM
Cc1c(C[C@H](C)N)sc2c(NCc3ccc(F)s3)cnnc12 [Compound 16, 6-[(2S)-2-aminopropyl]-N-[(5-fluorothiophen-2-yl)methyl]-7-methylthieno[3,2-c]pyridazin-4-amine]	0.501 to 5 µM	0.501 to 5 µM
Cc1c(C[C@H](C)N)sc2c(Nc3cccs3)cnnc12 [Compound 82, 6-[(2S)-2-aminopropyl]-7-methyl-N-(thiophen-2-yl)thieno[3,2-c]pyridazin-4-amine]	10 to 40 µM	10 to 40 µM
Cc1c(C[C@H](C)N)sc2c(NCc3sccc3F)cnnc12 [Compound 10, 6-[(2S)-2-aminopropyl]-N-[(3-fluorothiophen-2-yl)methyl]-7-methylthieno[3,2-c]pyridazin-4-amine]	0.501 to 5 µM	0.501 to 5 µM
CC(=O)CCc1sc2c(NCc3cccs3)cnnc2c1C [Compound 88, 4-{7-methyl-4-[(thiophen-2-ylmethyl)amino]thieno[3,2-c]pyridazin-6-yl}butan-2-one]	10 to 40 µM	–
Cc1csc(CNc2cnnc3c(C)c(C[C@H](C)N)sc23)c1 [Compound 79, 6-[(2S)-2-aminopropyl]-7-methyl-N-[(4-methylthiophen-2-yl)methyl]thieno[3,2-c]pyridazin-4-amine]	10 to 40 µM	–
Cc1ccsc1CNc1cnnc2c(C)c(C[C@H](C)N)sc12 [Compound 78, 6-[(2S)-2-aminopropyl]-7-methyl-N-[(3-methylthiophen-2-yl)methyl]thieno[3,2-c]pyridazin-4-amine]	10 to 40 µM	–
Cc1ccc(CNc2cnnc3c(C)c(C[C@H](C)N)sc23)s1 [Compound 77, 6-[(2S)-2-aminopropyl]-7-methyl-N-[(5-methylthiophen-2-yl)methyl]thieno[3,2-c]pyridazin-4-amine]	10 to 40 µM	–

More lines, now with the values ahead:

IC50 (total ATXN3 protein)	IC50 [1]	SMILES
10 to 40 µM	10 to 40 µM	Cc1c(CC#N)sc2c(NCc3cccs3)cnnc12 [Compound 98, 2-{7-methyl-4-[(thiophen-2-ylmethyl)amino]thieno[3,2-c]pyridazin-6-yl}acetonitrile]
10 to 40 µM	10 to 40 µM	Cc1c(C[C@@H]2CCN2)sc2c(NCc3cccs3)cnnc12 [Compound 71, 6-{[(2S)-azetidin-2-y1]methyl}-7-methyl-N-[(thiophen-2-yl)methyl]thieno[3,2-c]pyridazin-4-amine]
10 to 40 µM	10 to 40 µM	Cc1c(CCN)sc2c(NCc3ccco3)cnnc12 [Compound 21, 6-(2-aminoethyl)-N-[(furan-2-yl)methyl]-7-methylthieno[3,2-c]pyridazin-4-amine]
10 to 40 µM	10 to 40 µM	Clc1csc2c(NCc3cccs3)cnnc12 [Compound 67, 7-chloro-N-[(thiophen-2-yl)methyl]thieno[3,2-c]pyridazin-4-amine]
0.101 to 0.5 µM	0.101 to 0.5 µM	N[C@@H](CO)Cc1sc2c(NCc3ccco3)cnnc2c1Cl [Compound 96, (2R)-2-amino-3-(7-chloro-4-{[(furan-2-yl)methyl]amino}thieno[3,2-c]pyridazin-6-yl)propan-1-ol]
5 to 10 µM	5 to 10 µM	Cc1c(C[C@@H](N)CS(C)(=O)=O)sc2c(NCc3cccs3)cnnc12 [Compound 60, 6-[(2R)-2-amino-3-methanesulfonylpropyl]-7-methyl-N-(thiophen-2-ylmethyl)thieno[3,2-c]pyridazin-4-amine]
5 to 10 µM	0.501 to 5 µM	Cc1c(C[C@@H](N)CC#N)sc2c(NCc3cccs3)cnnc12 [Compound 27, (3S)-3-amino-4-(7-methyl-4-{[(thiophen-2-yl)methyl]amino}thieno[3,2-c]pyridazin-6-yl)butanenitrile]
0.501 to 5 µM	0.501 to 5 µM	Cc1c(C(F)[C@H](C)N)sc2c(NCc3cccs3)cnnc12 (stereo partly drawn) [Compound 55, 6-[(2S)-2-amino-1-fluoropropyl]-7-methyl-N-[(thiophen-2-yl)methyl]thieno[3,2-c]pyridazin-4-amine]
0.501 to 5 µM	0.501 to 5 µM	N[C@@H](CO)Cc1cc2nncc(NCc3cccs3)c2s1 [Compound 53, (2R)-2-amino-3-(4-{[(thiophen-2-yl)methyl]amino}thieno[3,2-c]pyridazin-6-yl)propan-1-ol]
0.501 to 5 µM	0.501 to 5 µM	C[C@H](N)C(F)(F)c1sc2c(NCc3cccs3)cnnc2c1Br [Compound 140, 6-[(2S)-2-amino-1,1-difluoropropyl]-7-bromo-N-[(thiophen-2-yl)methyl]thieno[3,2-c]pyridazin-4-amine]
10 to 40 µM	10 to 40 µM	Cc1c(CC(N)=O)sc2c(NCc3cccs3)cnnc12 [Compound 105, 2-(7-methyl-4-{[(thiophen-2-yl)methyl]amino}thieno[3,2-c]pyridazin-6-yl)acetamide]
10 to 40 µM	10 to 40 µM	Cc1c(CC(C)CN)sc2c(NCc3cccs3)cnnc12 (stereo not drawn) [Compound 104, 6-(3-amino-2-methylpropyl)-7-methyl-N-[(thiophen-2-yl)methyl]thieno[3,2-c]pyridazin-4-amine]
0.501 to 5 µM	0.501 to 5 µM	Cc1c(CC(N)CF)sc2c(NCc3cccs3)cnnc12 (stereo not drawn) [Compound 141, 6-(2-amino-3-fluoropropyl)-7-methyl-N-[(thiophen-2-yl)methyl]thieno[3,2-c]pyridazin-4-amine]
0.101 to 0.5 µM	0.101 to 0.5 µM	C[C@H](F)[C@H](N)Cc1sc2c(NCc3cccs3)cnnc2c1Br [Compound 135, 6-[(2R,3S)-2-amino-3-fluorobutyl]-7-bromo-N-[(thiophen-2-yl)methyl]thieno[3,2-c]pyridazin-4-amine]
10 to 40 µM	10 to 40 µM	Cc1c(C(C)CO)sc2c(NCc3cccs3)cnnc12 (stereo not drawn) [Compound 54, 2-{7-methyl-4-[(thiophen-2-ylmethyl)amino]thieno[3,2-c]pyridazin-6-yl}propan-1-ol]
10 to 40 µM	10 to 40 µM	Brc1csc2c(NCc3cccs3)cnnc12 [Compound 63, 7-bromo-N-(thiophen-2-ylmethyl)thieno[3,2-c]pyridazin-4-amine]
0.501 to 5 µM	0.501 to 5 µM	Cc1c(C[C@@H](N)CC2CC2)sc2c(NCc3cccs3)cnnc12 [Compound 68, 6-[(2S)-2-amino-3-cyclopropylpropyl]-7-methyl-N-[(thiophen-2-yl)methyl]thieno[3,2-c]pyridazin-4-amine]
10 to 40 µM	–	Cc1c(C[C@@H]2CCCN2)sc2c(NCc3cccs3)cnnc12 [Compound 70, 7-methyl-6-{[(2S)-pyrrolidin-2-yl]methyl}-N-[(thiophen-2-yl)methyl]thieno[3,2-c]pyridazin-4-amine]

Source: patent US20250101034A1, “COMPOSITIONS USEFUL FOR MODULATING SPLICING” (SKYHAWK THERAPEUTICS, INC., priority 2021, published 2025)
